From patent publication US11827628B2, “Compositions and methods for inhibition of the JAK pathway” (Rigel Pharmaceuticals, Inc., priority 2005, dated 2023)
Counter-ions that a name gives are not always drawn. Like-named read-outs stand apart in the source and are kept apart here.

System: up-regulation of ICAM-1 (CD54) by IFNγ in A549 lung epithelial cells
Experiment: A549 Epithelial Line Stimulated with IFNγ (ICAM-1 surface expression, FACS)
Format: cell-based, human
Details: ICAM-1 expression by FACS, read-out: IC50, Example 43
Summary of the method: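 ICAM-1 (CD54) flow cytometry on live-gated A549 cells, geometric mean versus dose giving EC50. Cells received IFNγ at 75 ng/mL for 24 h after a 1 h compound pre-treatment spanning 30 μM to 14 nM in medium with 5% FBS and 0.3% DMSO.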

[1] = Homo sapiens, A549, A549 epithelial line stimulated with IFNγ
[2] = A549 cells stimulated with IFNγ
[3] = Homo sapiens, A549, A549 cells stimulated with IFNγ

Compound	IC50 [1] [µM]	IC50 [2] [µM]	also measured
CN(C)C(=O)OCCc1ccc(Nc2nc(Nc3cccc(S(N)(=O)=O)c3)ncc2F)cc1 [III-57, N2-(3-Aminosulfonylphenyl)-N4-{4-[2-(dimethylaminocarbonyloxy)ethyl]phenyl}-5-fluoro-2,4-pyrimidinediamine]	55.5	–	–
CNC(=O)OCCc1ccc(Nc2nc(Nc3cccc(S(N)(=O)=O)c3)ncc2F)cc1 [III-60, N2-(3-Aminosulfonylphenyl)-5-fluoro-N4-{4-[2-(methylaminocarbonyloxy)ethyl]phenyl}-2,4-pyrimidinediamine]	25.5	–	–
NS(=O)(=O)c1ccc(Nc2ncc(F)c(Nc3ccc(Cc4ccncc4)cc3)n2)cc1 [III-71, N2-(4-Aminosulfonylphenyl)-5-fluoro-N4-[4-(4-pyridinylmethyl)phenyl]-2,4-pyrimidinediamine]	8.26	–	–
NS(=O)(=O)c1cccc(Nc2ncc(F)c(NCCc3ccc(-n4ccnc4)cc3)n2)c1 [III-87, N2-(3-Aminosulfonylphenyl)-5-fluoro-N4-[4-(1-imidazolyl)phenethyl]-2,4-pyrimidinediamine]	76.2	–	–
Cc1ccc(Nc2ncc(F)c(NCCc3ccc(-n4ccnc4)cc3)n2)cc1S(N)(=O)=O [III-88, N2-(3-Aminosulfonyl-4-methylphenyl)-5-fluoro-N4-[4-(1-imidazolyl)phenethyl]-2,4-pyrimidinediamine]	10.6	–	–
Cc1noc(CCc2ccc(Nc3nc(Nc4cccc(S(N)(=O)=O)c4)ncc3F)cc2)n1 [III-106, N2-(3-Aminosulfonylphenyl)-5-fluoro-N4-[4-(3-methyl-1,2,4-oxadiazol-5-yl)ethylenephenyl]-2,4-pyrimidinediamine]	–	5.9	–
NS(=O)(=O)c1cccc(Nc2ncc(F)c(Nc3ccc(Cc4ccncc4)cc3)n2)c1 [III-129, N2-(3-Aminosulfonylphenyl)-5-fluoro-N4-[4-(4-pyridylmethyl)phenyl]-2,4-pyrimidinediamine Methanesulfonic Acid Salt]	–	31.3	–
Cc1cc(Nc2nc(Nc3ccc(S(N)(=O)=O)cc3)ncc2F)cc(C)c1N1CCN(C)CC1 [IX-44, N2-(4-Aminosulfonylphenyl)-N4-[3,5-dimethyl-4-(4-methylpiperazin-1-yl]phenyl)-5-fluoro-2,4-pyrimidinediamine]	–	–	IC50 [3]: 8.17 µM
COC(=O)c1ccc(Nc2nc(Nc3ccc(F)c(S(N)(=O)=O)c3)ncc2F)s1 [IX-48, N2-(3-Aminosulfonyl-4-fluorophenyl)-5-fluoro-N4-(5-methoxycarbonyl-thiophene-2-yl)-2,4-pyrimidinediamine]	–	–	IC50 [3]: 9.56 µM
COc1ccc(Nc2nc(Nc3cccc(S(=O)(=O)NN4CCC(C)CC4)c3)ncc2F)cc1Cl [VI-9, N4-(3-Chloro-4-methoxyphenyl)-5-fluoro-N2-[3-(4-methylpipendin-1-yl)aminosulfonylphenyl]-2,4-pyrimidinediamine]	–	9.96	–
N4-(3,4-Dichlorophenyl)-5-fluoro-N2-[3-(4-methylpipendin-1-yl)aminosulfonylphenyl]-2,4-pyrimidinediamine [VI-10]	–	24.9	–
